The nature of one data set: LD50 (acute toxicity). The class given is in vivo.
Another data set concerns central nervous system. Briefly: Turning rat test (minimum active dosage). The class given is in vivo.
Data set [1] relates to Escherichia coli. Briefly: Escherichia coli in vivo (mouse) ED50.
Data set [2] relates to Escherichia coli. The data set can be described thus: Escherichia coli in vitro MIC (Minimum Inhibitory Concentration). It counts as cell-based.
The mark [3] stands for this setting: vs d-amphetamine and d-methamphetamine, see Table 1.

We go through 9 compounds from patent US4549022A, “4-Pyridone-3-carboxylic acid derivatives” (Hoffmann-La Roche Inc., priority 1978, dated 1985).

Converted amounts (≈) assume the structure as drawn. Read-outs that look alike come from different tables or passages of the source. Where only a bound is given, the exact number is not on record here.

One may read the LD50 as the dose expected to kill half of the subjects tested. Take `CCn1cc(C(=O)O)c(=O)cc1-c1ccccc1` [1-ethyl-4-oxo-6-phenyl-1,4-dihydronicotinic acid]: the LD50 in the data set “LD50 (acute toxicity)” (in vivo, po) was in the range of 300 to 600 mg/kg. Further, in the data set “LD50 (acute toxicity)” (setting [3]), the “LD50 compared with d-amphetamine and d-methamphetamine” value is “substantially lower LD50”. Further, the “LD50 compared with nomifensin” value in “LD50 (acute toxicity)” (vs nomifensin, see Table 1) is “about the same LD50”. Also, the “Turning rat test minimum active dosage” value in the data set on central nervous system (Arch. int. Pharmacodyn. Ther. 217, 118-130 (1975)) is 1. For the same compound, the “activity compared with d-amphetamine and d-methamphetamine” value with central nervous system (setting [3]) is recorded as “about the same strong activity”. In addition, in the data set with central nervous system (vs nomifensin, see Table 1), the “activity compared with nomifensin” value was “substantially superior activity to nomifensin”.
The term ED50 denotes the midpoint of the dose-response relation. Broadly, the MIC is the smallest concentration in the dilution series that meets the test's criterion for growth inhibition. Consider `CCn1cc(C(=O)O)c(=O)cc1-c1ccc2c(c1)OCO2` [1-ethyl-6-(3,4-methylenedioxyphenyl)-4-oxo-1,4-dihydronicotinic acid], for which the ED50 in the data set with Escherichia coli [1] (po, read-out: ED50) was > 100 mg/kg. The MIC in the data set on Escherichia coli [2] (read-out: MIC) turned out to be 2.5 µg/mL (≈ 8.7 µM).
Taken in the same sequence, the figures for `CCn1cc(C(=O)O)c(=O)cc1-c1ccc(NC)c(C)c1` [1-ethyl-6-(3-methyl-4-methylaminophenyl)-4-oxo-1,4-dihydronicotinic acid] were 3.5 mg/kg and 0.6 µg/mL (≈ 2.1 µM).
For the compound `CCn1cc(C(=O)O)c(=O)cc1-c1ccc(OC)cc1` [1-ethyl-6-(4-methoxyphenyl)-4-oxo-1,4-dihydronicotinic acid], in the data set on Escherichia coli [1] (po, read-out: ED50), the ED50 is > 100 mg/kg. Also, in the data set with Escherichia coli [2] (read-out: MIC), the MIC turned out to be 2.5 µg/mL (≈ 9.15 µM).
The matching figures for `CCn1cc(C(=O)O)c(=O)cc1-c1ccc(SC)cc1` [1-ethyl-6-(4-methylthiophenyl)-4-oxo-1,4-dihydronicotinic acid]: 82 mg/kg and 2.5 µg/mL (≈ 8.64 µM).
Taken in the same sequence, the figures for `CCn1cc(C(=O)O)c(=O)cc1-c1ccc(N2CCCC2)cc1` [1-ethyl-6-(4-pyrrolidinophenyl)-4-oxo-1,4-dihydronicotinic acid] were 19 mg/kg and 1.2 µg/mL (≈ 3.84 µM).
In turn, `CCn1cc(C(=O)O)c(=O)cc1-c1ccc(-n2cccc2)cc1` [1-ethyl-6-(4-pyrrolophenyl)-4-oxo-1,4-dihydronicotinic acid] returned an ED50 in the data set with Escherichia coli [1] (p.o.) of 34 mg/kg. For the same compound, the MIC with Escherichia coli [2] was 1.2 µg/mL (≈ 3.89 µM).
Regarding `CCn1cc(C(=O)O)c(=O)cc1-c1ccc(N(C)C)cc1` [1-ethyl-6-[4-(dimethylamino)-phenyl]-4-oxo-1,4-dihydronicotinic acid], the ED50 in the data set with Escherichia coli [1] (po, read-out: ED50) is 8.8 mg/kg. Further, the MIC in the data set with Escherichia coli [2] (read-out: MIC) was 0.6 µg/mL (≈ 2.1 µM).
On to `O=C1CN(/N=C/c2ccc([N+](=O)[O-])o2)C(=O)N1` [Nitrofurantoin, reference compound], for which, in the data set on Escherichia coli [1] (po, read-out: ED50), the ED50 was > 100 mg/kg. In addition, the MIC in the data set on Escherichia coli [2] (read-out: MIC) was 5 µg/mL (≈ 21 µM).
